The target in test [1] is T1, Apoptotic protease-activating factor 1 (Homo sapiens, UniProt O14727).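 Further: caspase-3 cleavage of fluorogenic Rh110 DEVD substrate downstream of apoptosome activation.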
T1 sequence (O14727 whole entry): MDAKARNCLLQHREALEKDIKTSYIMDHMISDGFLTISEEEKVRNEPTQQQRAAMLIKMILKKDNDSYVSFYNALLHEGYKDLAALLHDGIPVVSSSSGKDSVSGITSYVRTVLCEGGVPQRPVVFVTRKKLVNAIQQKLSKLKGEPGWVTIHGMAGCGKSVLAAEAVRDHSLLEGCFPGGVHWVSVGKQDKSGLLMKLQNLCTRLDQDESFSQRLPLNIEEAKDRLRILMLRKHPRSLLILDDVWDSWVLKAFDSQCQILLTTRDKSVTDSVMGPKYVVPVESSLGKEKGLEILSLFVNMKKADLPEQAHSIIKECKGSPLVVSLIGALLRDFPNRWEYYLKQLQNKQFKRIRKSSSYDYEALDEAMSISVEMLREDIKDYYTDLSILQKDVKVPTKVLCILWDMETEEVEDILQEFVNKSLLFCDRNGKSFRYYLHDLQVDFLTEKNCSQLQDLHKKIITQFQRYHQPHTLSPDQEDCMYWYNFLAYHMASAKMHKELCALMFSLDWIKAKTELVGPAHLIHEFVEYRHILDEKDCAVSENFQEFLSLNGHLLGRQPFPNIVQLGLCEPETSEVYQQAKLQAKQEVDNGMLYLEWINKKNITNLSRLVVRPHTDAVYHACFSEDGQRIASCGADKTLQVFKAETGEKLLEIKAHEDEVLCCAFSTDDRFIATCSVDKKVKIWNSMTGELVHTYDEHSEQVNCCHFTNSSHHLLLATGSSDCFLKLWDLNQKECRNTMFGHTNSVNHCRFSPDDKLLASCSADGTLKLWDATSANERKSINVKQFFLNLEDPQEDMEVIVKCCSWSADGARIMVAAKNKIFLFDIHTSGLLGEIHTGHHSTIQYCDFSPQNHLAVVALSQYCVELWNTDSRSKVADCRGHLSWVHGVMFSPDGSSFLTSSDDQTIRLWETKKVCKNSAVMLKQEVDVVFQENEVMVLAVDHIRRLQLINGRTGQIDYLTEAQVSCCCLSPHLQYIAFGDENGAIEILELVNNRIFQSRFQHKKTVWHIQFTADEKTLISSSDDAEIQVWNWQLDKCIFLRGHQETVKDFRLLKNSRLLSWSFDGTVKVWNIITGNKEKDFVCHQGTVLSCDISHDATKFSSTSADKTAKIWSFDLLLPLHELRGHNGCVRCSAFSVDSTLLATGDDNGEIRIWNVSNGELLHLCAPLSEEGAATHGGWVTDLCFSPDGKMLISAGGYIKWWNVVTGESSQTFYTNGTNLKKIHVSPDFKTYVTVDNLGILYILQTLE
In words: SAR analysis of small molecule Activators of Apaf-1 in a Fluorescent assay. It is filed as functional. The conditions noted are these: read-out: EC50_Mean.

The target in test [2] is T2, Corticotropin-releasing factor receptor 2/Corticotropin-releasing factor-binding protein (Homo sapiens, UniProt P24387+Q13324).
T2 sequence (Q13324 whole entry): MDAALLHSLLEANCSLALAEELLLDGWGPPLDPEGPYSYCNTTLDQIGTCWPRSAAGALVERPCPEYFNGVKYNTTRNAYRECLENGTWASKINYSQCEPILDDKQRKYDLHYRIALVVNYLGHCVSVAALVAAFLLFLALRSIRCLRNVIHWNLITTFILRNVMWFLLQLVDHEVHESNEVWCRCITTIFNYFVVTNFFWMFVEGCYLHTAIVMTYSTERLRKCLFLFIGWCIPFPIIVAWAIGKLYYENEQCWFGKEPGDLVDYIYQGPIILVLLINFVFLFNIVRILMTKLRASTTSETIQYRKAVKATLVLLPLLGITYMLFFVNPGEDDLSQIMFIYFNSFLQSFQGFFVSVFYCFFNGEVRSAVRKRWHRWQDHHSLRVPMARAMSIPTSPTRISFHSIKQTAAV
T2 sequence (P24387 whole entry): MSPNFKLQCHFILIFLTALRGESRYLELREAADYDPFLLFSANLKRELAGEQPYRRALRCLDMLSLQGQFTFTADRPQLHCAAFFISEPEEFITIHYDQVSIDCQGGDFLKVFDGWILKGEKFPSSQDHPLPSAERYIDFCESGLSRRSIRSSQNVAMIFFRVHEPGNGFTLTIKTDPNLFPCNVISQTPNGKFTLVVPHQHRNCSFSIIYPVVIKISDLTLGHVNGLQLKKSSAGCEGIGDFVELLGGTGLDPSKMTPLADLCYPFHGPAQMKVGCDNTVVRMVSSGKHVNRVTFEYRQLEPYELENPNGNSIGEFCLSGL
In words: Dose Response confirmation of uHTS hits for small molecule antagonists of the CRF-binding protein and CRF-R2 receptor complex. It is filed as functional. To be noted: read-out: IC50_Mean.

Test [3] deals with T2, Corticotropin-releasing factor receptor 2/Corticotropin-releasing factor-binding protein. Description: activators of CRF receptor 2 with binding protein – uHTS hits, confirmation (AID 602473). It is filed as functional. To be noted: read-out: EC50_Mean.
Test [4] in a line: CRF-BP/CRF-R2 complex antagonists, dose response, cell-based, uHTS hits, 384-well (AID 651639). It is filed as functional, Homo sapiens. To be noted: read-out: IC50_Mean.
Test [5] addresses T3, High affinity choline transporter 1 (Homo sapiens, UniProt Q9GZV3).
T3 sequence (Q9GZV3 whole entry): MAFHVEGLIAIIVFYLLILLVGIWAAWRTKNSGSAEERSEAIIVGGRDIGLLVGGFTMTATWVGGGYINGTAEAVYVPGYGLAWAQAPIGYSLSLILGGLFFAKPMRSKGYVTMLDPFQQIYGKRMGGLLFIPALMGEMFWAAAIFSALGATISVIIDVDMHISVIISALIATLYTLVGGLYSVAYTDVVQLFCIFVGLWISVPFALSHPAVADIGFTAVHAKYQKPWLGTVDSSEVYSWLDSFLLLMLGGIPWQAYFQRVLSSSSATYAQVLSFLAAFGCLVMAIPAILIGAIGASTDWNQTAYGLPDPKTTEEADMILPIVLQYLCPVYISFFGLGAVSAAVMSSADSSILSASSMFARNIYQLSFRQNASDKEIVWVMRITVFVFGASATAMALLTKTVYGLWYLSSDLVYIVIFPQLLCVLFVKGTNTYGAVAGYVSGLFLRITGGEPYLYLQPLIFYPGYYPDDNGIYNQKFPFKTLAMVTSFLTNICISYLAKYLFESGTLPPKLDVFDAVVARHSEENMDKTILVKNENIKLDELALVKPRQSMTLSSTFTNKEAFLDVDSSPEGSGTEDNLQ
In words: CHT inhibitors, dose response, cell-based, 5-point CRC, membrane potential dye (AID 504840). It is filed as functional.

Test [6] deals with T3, High affinity choline transporter 1. Description: CHT inhibitors, dose response, cell-based, 10-point CRC, membrane potential dye (AID 588401).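 Further: membrane potential dye fluorescence of choline-evoked depolarization via CHT.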 It is filed as functional.
The target in test [7] is T4, Carboxy-terminal domain RNA polymerase II polypeptide A small phosphatase 1 (Homo sapiens, UniProt Q9GZU7).
T4 sequence (Q9GZU7 whole entry): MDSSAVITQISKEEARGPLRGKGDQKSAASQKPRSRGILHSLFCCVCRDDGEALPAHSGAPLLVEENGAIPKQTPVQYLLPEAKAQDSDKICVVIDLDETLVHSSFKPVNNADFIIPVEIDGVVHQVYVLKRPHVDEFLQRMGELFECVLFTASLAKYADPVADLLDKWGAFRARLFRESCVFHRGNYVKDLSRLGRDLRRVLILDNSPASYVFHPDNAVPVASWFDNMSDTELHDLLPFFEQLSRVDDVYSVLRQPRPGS
Description: inhibitors of CTDSP1, concentration-response testing, biochemical assay, absorbance-based, actives from ultra-high-throughput screening (AID 540297). It is filed as functional.

The target of test [8] is DNA (cytosine-5)-methyltransferase 1 (Homo sapiens, UniProt P26358). Description: DNMT1 methyltransferase inhibitors, confirmation, biochemical, fluorescent molecular beacon (AID 602386). The test is classed as functional.
Test [9] can be described thus: THP-1 cell cytotoxicity, dose response, cytotoxicity control for Vif-APOBEC3G degradation inhibitor project, THP-1 cells (AID 1117359). The test is classed as functional. The conditions noted are these: Human immunodeficiency virus 1, THP-1.
Another test concerns the target Troponin, cardiac muscle (Homo sapiens, UniProt P19429+P45379+P63316). Description: Fluorescence-based biochemical high throughput dose response assay for activators of the calcium sensitivity of cardiac Regulated Thin Filaments (RTF). [Related pubchem assays (depositor defined):AID493008, AID493018, AID504382, AID504383]. The test is classed as protein-complex assay.

Test [10] has as its target T5, Polyadenylate-binding protein 1 (Homo sapiens, UniProt P11940). Description: PABP1 MLLE–PAM2 interaction inhibitors, dose response, miRNA deadenylation inhibitor project, biochemical, fluorescence polarization, Cy5-PAM2 peptide, secondary (AID 602260). To be noted: read-out: IC50_Mean. The test is classed as functional. Background: Fluorescence polarisation rises when a labelled molecule tumbles more slowly, as on binding a larger partner.

Test [11] addresses T5, Polyadenylate-binding protein 1. Description: PABP1 MLLE–PAM2 binding inhibitor potency, dose response, biochemical, fluorescence polarization, FITC-PAM2 peptide (AID 602259). To be noted: read-out: IC50_Mean. The test is classed as functional.

Active and inactive are the calls of the source. Some results are limits rather than exact numbers.

As a reminder, the CC50 is the concentration that lowers cell viability or growth by half.

T5 sequence (P11940 whole entry): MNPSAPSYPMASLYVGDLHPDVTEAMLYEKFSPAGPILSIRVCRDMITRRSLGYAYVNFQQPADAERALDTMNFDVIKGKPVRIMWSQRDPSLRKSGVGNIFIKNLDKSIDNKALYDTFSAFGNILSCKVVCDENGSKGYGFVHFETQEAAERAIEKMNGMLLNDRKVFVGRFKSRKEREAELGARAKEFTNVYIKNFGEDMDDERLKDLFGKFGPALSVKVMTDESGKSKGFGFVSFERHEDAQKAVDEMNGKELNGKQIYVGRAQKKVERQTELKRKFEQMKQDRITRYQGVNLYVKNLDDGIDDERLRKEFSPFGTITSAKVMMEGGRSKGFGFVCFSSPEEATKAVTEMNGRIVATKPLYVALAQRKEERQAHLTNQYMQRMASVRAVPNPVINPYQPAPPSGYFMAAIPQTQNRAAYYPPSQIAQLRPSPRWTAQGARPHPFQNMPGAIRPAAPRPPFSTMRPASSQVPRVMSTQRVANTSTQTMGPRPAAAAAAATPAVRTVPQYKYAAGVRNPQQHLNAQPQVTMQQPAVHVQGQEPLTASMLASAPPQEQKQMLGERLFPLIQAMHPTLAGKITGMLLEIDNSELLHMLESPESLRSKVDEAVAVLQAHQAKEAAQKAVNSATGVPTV
Sequence of DNA (cytosine-5)-methyltransferase 1 (P26358 whole entry): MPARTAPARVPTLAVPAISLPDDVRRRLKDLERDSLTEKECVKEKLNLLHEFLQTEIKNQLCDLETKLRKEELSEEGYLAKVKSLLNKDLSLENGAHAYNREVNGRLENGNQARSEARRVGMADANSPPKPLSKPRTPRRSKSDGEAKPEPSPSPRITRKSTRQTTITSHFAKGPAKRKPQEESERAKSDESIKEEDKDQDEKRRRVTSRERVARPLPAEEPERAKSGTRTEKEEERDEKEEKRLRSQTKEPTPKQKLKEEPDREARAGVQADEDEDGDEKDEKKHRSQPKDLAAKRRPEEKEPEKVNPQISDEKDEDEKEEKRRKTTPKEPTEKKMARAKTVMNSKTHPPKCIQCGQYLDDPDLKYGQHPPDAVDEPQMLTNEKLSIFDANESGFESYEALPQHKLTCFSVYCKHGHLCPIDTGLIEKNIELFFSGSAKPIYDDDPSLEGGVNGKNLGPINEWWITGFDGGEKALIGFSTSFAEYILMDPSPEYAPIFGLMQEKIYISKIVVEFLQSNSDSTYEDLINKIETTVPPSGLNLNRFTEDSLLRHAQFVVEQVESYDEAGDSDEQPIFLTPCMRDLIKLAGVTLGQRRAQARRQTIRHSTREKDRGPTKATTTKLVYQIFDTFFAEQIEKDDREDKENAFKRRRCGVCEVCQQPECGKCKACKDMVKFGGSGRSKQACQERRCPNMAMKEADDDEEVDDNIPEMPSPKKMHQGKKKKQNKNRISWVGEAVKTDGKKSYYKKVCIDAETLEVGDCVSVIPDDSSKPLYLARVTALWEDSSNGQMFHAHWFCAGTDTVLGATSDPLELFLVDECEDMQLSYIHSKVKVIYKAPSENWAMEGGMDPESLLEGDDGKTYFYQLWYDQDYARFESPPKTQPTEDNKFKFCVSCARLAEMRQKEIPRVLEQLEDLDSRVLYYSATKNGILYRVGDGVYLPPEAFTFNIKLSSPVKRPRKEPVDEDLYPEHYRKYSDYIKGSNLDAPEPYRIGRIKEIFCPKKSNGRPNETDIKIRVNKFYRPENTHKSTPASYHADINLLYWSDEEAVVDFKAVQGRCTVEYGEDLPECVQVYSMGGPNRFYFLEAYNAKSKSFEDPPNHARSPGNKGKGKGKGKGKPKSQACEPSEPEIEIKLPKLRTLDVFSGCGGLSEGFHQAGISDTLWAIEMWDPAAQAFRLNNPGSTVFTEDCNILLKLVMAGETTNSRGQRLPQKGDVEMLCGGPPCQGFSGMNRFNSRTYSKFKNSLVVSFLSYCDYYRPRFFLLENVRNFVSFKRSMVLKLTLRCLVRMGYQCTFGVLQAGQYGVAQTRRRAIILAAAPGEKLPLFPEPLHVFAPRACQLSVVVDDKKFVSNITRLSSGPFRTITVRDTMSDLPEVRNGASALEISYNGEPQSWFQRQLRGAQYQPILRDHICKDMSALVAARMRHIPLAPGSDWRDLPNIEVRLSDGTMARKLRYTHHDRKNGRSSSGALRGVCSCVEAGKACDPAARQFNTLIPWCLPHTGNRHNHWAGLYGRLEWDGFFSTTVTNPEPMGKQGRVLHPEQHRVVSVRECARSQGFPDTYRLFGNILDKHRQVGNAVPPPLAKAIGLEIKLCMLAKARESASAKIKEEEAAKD

Regarding `COc1cc(Cl)c(C)cc1NC(=O)CCS(=O)(=O)c1ccc(Cl)cc1`, the EC50 in [1] is > 100 µM (inactive).

Turning to `O=C1NC(=S)S/C1=C\c1cccc([N+](=O)[O-])c1`, the IC50 in test [2] is 16.7 µM (active); in test [4] it was > 20 µM (inactive). For the same compound, the EC50 in [3] was 10.8 µM (active).

On to `CCC(Oc1ccccc1)C(=O)Nc1ccc(S(=O)(=O)NCC2CCCO2)cc1` (configuration not stated), for which the IC50 was 10.5 µM (active) in [5] and 11.2 µM (active) in [6].

In the case of `COc1ccc(NC(=O)CN(C)C(=O)c2cc(-c3ccco3)nc3ccccc23)cc1`, the figures for the IC50 in test [7] and in test [8] were 2.55 µM (active) and 6.24 µM (active), respectively. The CC50 in [9] was > 40 µM (active).

Turning to `O=C(NCC(c1ccco1)N1CCCCC1)c1cccc(NS(=O)(=O)c2ccc(Br)cc2)c1` (configuration not stated), the IC50 in test [5] was 6.92 µM (active); in test [6] it was 3.36 µM (active).

Turning to `O=C1CC2(CC(c3ccc(F)cc3)=NO2)C(=O)N1c1cccc(Cl)c1` (configuration not stated), the EC50 in test [1] is > 100 µM (inactive).

Turning to `CN1c2ccccc2C(O)=C(C(S)=Nc2ccc(F)c(Cl)c2)S1(=O)=O`, the EC50 at Troponin, cardiac muscle was > 71.5 µM (inactive). In addition, the IC50 is 4.79 µM (active) in test [5], 3.55 µM (active) in test [6], > 66 µM (inactive) in test [10] and > 66 µM (inactive) in test [11].
